Source: ChEMBL document CHEMBL5370591, “A Potent and Narrow-Spectrum Antibacterial against Clostridioides difficile Infection” (J Med Chem, 2023)
Values after ≈ are worked out from the molar mass of the structure shown.

What was measured:
Clostridioides difficile = assay: Antibacterial activity against Clostridium difficile ATCC 43255 measured after 48 hrs by two fold serial dilution method; type: functional
THP-1 = assay: Cytotoxicity against human THP-1 cells assessed as increase in LDH release incubate for 24 hrs by trypan-blue staining based analysis; type: functional, cell-based; details: THP-1, 24 h
[1] = Selectivity ratio of IC50 for human THP-1 cells to MIC for Clostridium difficile ATCC 43255; type: toxicity

## Oc1ccc(-c2nc(-c3ccc(Oc4ccc(C(F)(F)F)cc4)cc3)no2)cc1
Clostridioides difficile
  MIC: 2 µg/mL (≈ 5.02 µM)
THP-1
  IC50: 17 µg/mL (≈ 42.7 µM)
[1]
  selectivity ratio: 9

## Oc1ccc(-c2nc(-c3ccc(Oc4ccccc4)cc3)no2)cc1
Clostridioides difficile
  MIC: 2 µg/mL (≈ 6.05 µM)
THP-1
  IC50: 17 µg/mL (≈ 51.5 µM)
[1]
  selectivity ratio: 8

## O=[N+]([O-])c1c[nH]nc1-c1nc(-c2ccc3oc4ccccc4c3c2)no1
Clostridioides difficile
  MIC: 4 µg/mL (≈ 11.5 µM)
[1]
  selectivity ratio: 2

## O=[N+]([O-])c1c[nH]nc1-c1nc(-c2ccc(OC(F)(F)F)cc2)no1
Clostridioides difficile
  MIC: 4 µg/mL (≈ 11.7 µM)
THP-1
  IC50: 25 µg/mL (≈ 73.3 µM)
[1]
  selectivity ratio: 6

## O=[N+]([O-])c1cc(-c2nc(-c3ccc(Oc4ccc(C(F)(F)F)cc4)cc3)no2)cnc1O
Clostridioides difficile
  MIC: 2 µg/mL (≈ 4.5 µM)
THP-1
  IC50: 37 µg/mL (≈ 83.3 µM)
[1]
  selectivity ratio: 19

## Oc1c(F)cc(-c2nc(-c3ccc(Oc4ccc(C(F)(F)F)cc4)cc3)no2)cc1F
THP-1
  IC50: 18 µg/mL (≈ 41.4 µM)
[1]
  selectivity ratio: 4

## Cl.NCc1ccc(-c2nc(-c3ccc(Oc4ccc(C(F)(F)F)cc4)cc3)no2)cc1
Clostridioides difficile
  MIC: 4 µg/mL
[1]
  selectivity ratio: 1

## Oc1ccc(-c2noc(-c3ccc(OC4CCCC4)cc3)n2)cc1
Clostridioides difficile
  MIC: 4 µg/mL (≈ 12.4 µM)
THP-1
  IC50: 8.5 µg/mL (≈ 26.4 µM)
[1]
  selectivity ratio: 2

## O=[N+]([O-])c1c[nH]nc1-c1nc(-c2ccc(Oc3ccc(I)cc3)cc2)no1
Clostridioides difficile
  MIC: 4 µg/mL (≈ 8.42 µM)
THP-1
  IC50: 100 µg/mL (≈ 210 µM)
[1]
  selectivity ratio: 25

## O=[N+]([O-])c1c[nH]nc1-c1nc(-c2ccc(Oc3ccc(C(F)(F)F)cc3)cc2)no1
Clostridioides difficile
  MIC: 4 µg/mL (≈ 9.59 µM)
THP-1
  IC50: 21 µg/mL (≈ 50.3 µM)
[1]
  selectivity ratio: 5

## CCCOc1ccc(-c2noc(-c3ccc(O)cc3)n2)cc1
Clostridioides difficile
  MIC: > 128 µg/mL

## O=[N+]([O-])c1c[nH]c(Nc2c[nH]nc2-c2nc(-c3ccc(Oc4ccc(C(F)(F)F)cc4)cc3)no2)c1
Clostridioides difficile
  MIC: 8 µg/mL (≈ 16.1 µM)

## CC(C)(C)OC(=O)N1CCC(Oc2ccc(-c3noc(-c4nc([N+](=O)[O-])c[nH]4)n3)cc2)CC1
Clostridioides difficile
  MIC: > 128 µg/mL

## FC(F)(F)c1ccc(Oc2ccc(-c3noc(-c4n[nH]cc4NC4CCCC4)n3)cc2)cc1
Clostridioides difficile
  MIC: > 128 µg/mL

## CCCCNc1c[nH]nc1-c1nc(-c2ccc(Oc3ccc(C(F)(F)F)cc3)cc2)no1
Clostridioides difficile
  MIC: > 128 µg/mL

## COc1ccc(-c2noc(-c3ccc(O)cc3)n2)cc1
Clostridioides difficile
  MIC: > 128 µg/mL

## FC(F)(F)c1ccc(Oc2ccc(-c3noc(-c4cn[nH]c4)n3)cc2)cc1
Clostridioides difficile
  MIC: > 128 µg/mL

## Oc1ccc(/C=C/c2nc(-c3ccc(OC4CCCC4)cc3)no2)cc1
Clostridioides difficile
  MIC: 64 µg/mL (≈ 184 µM)

## Oc1ccc(-c2nc(-c3ccc(Oc4ccc(C(F)(F)F)cc4)cc3)no2)cn1
Clostridioides difficile
  MIC: > 128 µg/mL

## FC(F)(F)c1ccc(Oc2ccc(-c3noc(-c4n[nH]cc4I)n3)cc2)cc1
Clostridioides difficile
  MIC: > 128 µg/mL

## FC(F)(F)c1ccc(Oc2ccc(-c3noc(-c4n[nH]cc4Nc4cc5ccccc5[nH]4)n3)cc2)cc1
Clostridioides difficile
  MIC: > 128 µg/mL

## Cl.O=[N+]([O-])c1c[nH]c(-c2nc(-c3ccc(OC4CCNCC4)cc3)no2)n1
Clostridioides difficile
  MIC: > 128 µg/mL

## Oc1ccc(-c2nc(-c3ccc(N4CCOCC4)cc3)no2)cc1
Clostridioides difficile
  MIC: > 128 µg/mL

## Oc1ccc(-c2nc(-c3ccc(Oc4cccc(I)c4)cc3)no2)cc1
THP-1
  IC50: 17 µg/mL (≈ 37.3 µM)
[1]
  selectivity ratio: 4

## COC(OC)c1ccc(-c2noc(-c3ccc(O)cc3)n2)cc1
Clostridioides difficile
  MIC: > 128 µg/mL

## FC(F)(F)Oc1ccc(-c2noc(-c3ccc4[nH]ccc4c3)n2)cc1
Clostridioides difficile
  MIC: > 128 µg/mL
